Data on eight compounds can be found in ChEMBL document CHEMBL1795314, “Mycobacterium tuberculosis and cholinesterase inhibitors from Voacanga globosa” (Eur J Med Chem, 2011).

Converted amounts (≈) assume the structure as drawn. Where only a bound is given, the exact number is not on record here.

By MIC is commonly meant the lowest concentration that inhibits growth of the organism. Low values mean a more susceptible organism, high ones a less susceptible organism. A word on the inhibition: it is the share of the control response that was lost under treatment.

Experiment [1] has as its system Mycobacterium tuberculosis. Nature of the experiment: Antitubercular activity against replicating Mycobacterium tuberculosis H37Rv ATCC 27294 after 1 week by microplate alamar blue assay. It counts as functional. To be noted: H37Rv ATCC 27294, 168 h.
The target in experiment [2] is Cholinesterase (Equus caballus, UniProt P81908). The experiment in a line: Inhibition of equine serum BChE by colorimetric Ellman's assay. Background: Ellman's reagent forms a yellow product with free thiols.
Experiment [3] relates to Mycobacterium tuberculosis. Nature of the experiment: Antitubercular activity against replicating Mycobacterium tuberculosis H37Rv ATCC 27294 at 100 ug/ml after 1 week by microplate alamar blue assay. It counts as functional. The following applies: H37Rv ATCC 27294, 168 h. Background: Resazurin is reduced to fluorescent resorufin, in cell work by metabolically active cells.

In experiment [4] the target is Acetylcholinesterase (Electrophorus electricus, UniProt O42275). Nature of the experiment: Inhibition of electric eel AChE by colorimetric Ellman's assay.
Experiment [5] deals with Mycobacterium tuberculosis. The experiment in a line: Antitubercular activity against replicating Mycobacterium tuberculosis H37Rv ATCC 27294 at 50 ug/ml after 1 week by microplate alamar blue assay. Type of experiment: functional. To be noted: H37Rv ATCC 27294, 168 h.
Experiment [6] deals with Mycobacterium tuberculosis. The experiment in a line: Antitubercular activity against non-replicating Mycobacterium tuberculosis H37Rv ATCC 27294 incubated 10 days under anaerobic condition measured after 28 hrs of recovery in air by luciferase based low oxygen recovery assay. It counts as functional.
Experiment [7] deals with Mycobacterium tuberculosis. Nature of the experiment: Antitubercular activity against replicating Mycobacterium tuberculosis H37Rv ATCC 27294 at 20 ug/ml after 1 week by microplate alamar blue assay. Type of experiment: functional. The following applies: H37Rv ATCC 27294, 168 h.

Sequence of Acetylcholinesterase (O42275 whole entry): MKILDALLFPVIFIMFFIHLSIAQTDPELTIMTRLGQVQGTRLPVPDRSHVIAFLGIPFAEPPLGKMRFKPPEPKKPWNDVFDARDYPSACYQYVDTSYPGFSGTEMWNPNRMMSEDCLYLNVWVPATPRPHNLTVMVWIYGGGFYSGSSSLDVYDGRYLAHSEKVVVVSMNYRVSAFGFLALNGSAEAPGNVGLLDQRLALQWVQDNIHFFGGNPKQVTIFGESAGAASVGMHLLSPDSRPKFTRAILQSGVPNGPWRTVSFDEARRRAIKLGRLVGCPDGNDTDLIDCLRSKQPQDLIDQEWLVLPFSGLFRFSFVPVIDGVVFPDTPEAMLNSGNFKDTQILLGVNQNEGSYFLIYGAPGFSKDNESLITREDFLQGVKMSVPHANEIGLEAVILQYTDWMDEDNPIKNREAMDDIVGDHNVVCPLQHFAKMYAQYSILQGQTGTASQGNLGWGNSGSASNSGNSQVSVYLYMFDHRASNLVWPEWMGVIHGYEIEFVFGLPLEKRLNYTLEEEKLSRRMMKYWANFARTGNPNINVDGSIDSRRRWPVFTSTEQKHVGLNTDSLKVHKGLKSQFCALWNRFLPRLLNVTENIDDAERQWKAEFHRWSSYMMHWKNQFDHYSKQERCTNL
Sequence of Cholinesterase (P81908 whole entry): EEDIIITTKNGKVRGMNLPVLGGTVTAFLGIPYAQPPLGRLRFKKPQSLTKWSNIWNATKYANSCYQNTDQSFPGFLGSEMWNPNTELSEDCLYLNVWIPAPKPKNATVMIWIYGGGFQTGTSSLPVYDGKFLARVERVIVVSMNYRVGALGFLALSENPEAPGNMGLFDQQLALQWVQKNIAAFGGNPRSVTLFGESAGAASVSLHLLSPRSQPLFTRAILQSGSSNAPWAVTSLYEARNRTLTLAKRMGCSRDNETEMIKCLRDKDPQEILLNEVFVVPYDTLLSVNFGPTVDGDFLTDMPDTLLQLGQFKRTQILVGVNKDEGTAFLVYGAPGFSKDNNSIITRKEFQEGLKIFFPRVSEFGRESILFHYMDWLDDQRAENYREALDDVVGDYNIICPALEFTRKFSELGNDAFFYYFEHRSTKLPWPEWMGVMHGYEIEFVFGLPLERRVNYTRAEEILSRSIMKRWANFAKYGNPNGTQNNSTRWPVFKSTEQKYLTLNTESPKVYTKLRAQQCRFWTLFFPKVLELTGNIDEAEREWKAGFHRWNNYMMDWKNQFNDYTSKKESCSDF

Consider `COC(=O)C1=C2Nc3ccccc3[C@@]23CCN2C[C@]4(C[C@@H]5C[C@]67CC(=O)O[C@H]6CCN6CC[C@@]8(c9cccc(OC)c9N(C4)[C@@H]58)[C@@H]67)[C@@H]4OCC[C@]4(C1)[C@H]23` [DEOXYVOBSTUSINE LACTONE], for which the MIC in experiment [1] is more than 100 µg/mL. Further, the IC50 worked out at 20.2 µM in experiment [2] (read-out: IC50) and 91 µM in experiment [4]. Further, in experiment [3], the inhibition at 100 µg/mL was 35%.

As to `COC(=O)C1=C2Nc3ccccc3[C@@]23CCN2C[C@]4(C[C@@H]5C[C@]67CCO[C@H]6CCN6CC[C@@]8(c9cccc(OC)c9N(C4)[C@@H]58)[C@@H]67)[C@@H]4OCC[C@]4(C1)[C@H]23` [DEOXYVOBTUSINE], in experiment [5], 50 µg/mL produced 13% inhibition. This compound also came in with an MIC in experiment [1] of more than 50 µg/mL. Moreover, the IC50 in experiment [2] (read-out: IC50) is 6.2 µM; in experiment [2] (read-out: pIC50 (converted)) it was 7.73 µM; in experiment [4], 87 µM.

The compound `COC(=O)C1=C2Nc3ccccc3[C@@]23CCN2C[C@]4(C[C@@H]5C[C@]67CC(=O)C[C@H]6CCN6CC[C@@]8(c9cccc(OC)c9N(C4)[C@@]58O)[C@@H]67)[C@@H]4OCC[C@]4(C1)[C@H]23` [VOBTUSINE LACTONE] returned an inhibition at 50 µg/mL in experiment [5] of 13%. The MIC in experiment [1] was more than 50 µg/mL. The values for the IC50 in experiment [2] (read-out: IC50) and in experiment [4] were 18 µM and 90 µM, respectively.

Consider `COc1c(N2C[C@@H]3CCCN[C@@H]3C2)c(F)cc2c(=O)c(C(=O)O)cn(C3CC3)c12` [MOXIFLOXACIN], for which the MIC was determined as 33.2 µg/mL (≈ 82.7 µM) in experiment [6] and 0.83 µg/mL (≈ 2.07 µM) in experiment [1].

In turn, `C=C(C)[C@@H]1CC[C@]2(C)CC[C@]3(C)[C@H](CC[C@@H]4[C@@]5(C)CC[C@H](O)C(C)(C)[C@@H]5CC[C@]43C)[C@@H]12` [LUPEOL] displayed an inhibition at 20 µg/mL in experiment [7] of 0%. Moreover, the MIC in experiment [1] was more than 20 µg/mL.

For the compound `CO[C@H]1/C=C/O[C@@]2(C)Oc3c(C)c(O)c4c(O)c(c(/C=N/N5CCN(C)CC5)c(O)c4c3C2=O)NC(=O)/C(C)=C\C=C\[C@H](C)[C@H](O)[C@@H](C)[C@@H](O)[C@@H](C)[C@H](OC(C)=O)[C@@H]1C` [RIFAMPIN], the values for the MIC in experiment [6] and in experiment [1] were 0.84 µg/mL (≈ 1.02 µM) and 0.15 µg/mL (≈ 0.182 µM), respectively.

In the case of `NNC(=O)c1ccncc1` [ISONIAZID], the figures for the MIC in experiment [6] and in experiment [1] were more than 128 µg/mL and 0.68 µg/mL (≈ 4.96 µM), respectively.

Regarding `COC(=O)C1=C2Nc3ccccc3[C@@]23CCN2[C@H](O)[C@]4(C[C@@H]5C[C@]67CC(=O)O[C@H]6CCN6CC[C@@]8(c9cccc(OC)c9N(C4)[C@@H]58)[C@@H]67)[C@@H]4OCC[C@]4(C1)[C@H]23` [GLOBOSPIRAMINE], the MIC in experiment [6] came to 5.2 µg/mL (≈ 7.1 µM); in experiment [1], 4 µg/mL (≈ 5.46 µM). Also, the figures for the IC50 in experiment [2] (read-out: IC50), in experiment [2] (read-out: pIC50 (converted)) and in experiment [4] were 16.4 µM, 16.3 µM and 94 µM, respectively.
